Data published in patent US20150309031A2, “COMPOSITIONS AND METHODS FOR PROGNOSIS AND TREATMENT OF CANCER” (NOVAZOI THERANOSTICS, priority 2013, published 2015).

How the values were obtained:
Type in all cases: cell-based
[1] = tested on: HeLa cells; assay: subG1 (hypodiploid) fraction by flow cytometry, HeLa cells
Procedure: (§1) Trypsinized cells were resuspended in PBS at 10^6 cells/ml. Cells were then fixed by addition of ice-cold 70% ethanol. Ethanol-fixed cells were kept overnight at 4° C. before staining. Cells were pelleted and washed twice with PBS. Cell pellets were incubated for an hour at room temperature with mouse anti-MPM-2 antibody (Millipore, Mass., USA), followed by 1 h incubation with Alexa-488 anti-mouse secondary antibody (Life Technologies, NY, USA). Finally cells were washed, pelleted and resuspended in propidium iodide-containing isotonic buffer (0.1 mg/mL) and 0.5% Triton X-100. Cell cycle distribution was determined by flow cytometry using an LSR Fortessa Flow cytometer (BD Biosciences, CA, USA) and analyzed using Flowjo software (Tree Star, OR, USA). […] The duration, highest degree, and rapidity of onset of MA varied between drugs, drug concentrations, and cell lines (FIGS. 2A, 2B). In general, the maximum MA achieved was less pronounced in Nos- and PJ-treated cells (FIGS. 2A, 2B). Drug-induced onset of MA was corroborated by substantial increases in cyclin B1 levels in all cell lines (FIG. 2C). […] Instances where the subG1 fraction was elevated without cleaved caspase-3 may either represent caspase-independent cell death or the presence of hypodiploid cells whose fate is unclear.

[2] = tested on: adult human dermal fibroblasts (HDF); assay: subG1 (hypodiploid) fraction by flow cytometry, HDFs
[3] = tested on: 231, HeLa and PC3 cells; assay: Centrosome amplification (CA) by microscopy, all cancer cell lines tested
Procedure: (§2) Consequently, CA was assessed in cultures treated with different concentrations of declustering drugs for 6, 12, 18, or 24 h and untreated controls via microscopy. Centrosomes were identified by γ-tubulin and centrin-2 colocalization at discrete foci. […] The peak percent CA detected over 24 h is shown in FIG. 6 (only statistically significant (P<0.05) increases over control values are represented in the Figures). Representative confocal micrographs of CA in interphase and mitotic cells, both control and drug treated, are depicted in FIG. 7. No significant correlations between the degree of CA (FIG. 5A) and the expression levels of PLK4, Cyclin E, and Aurora A were found (FIG. 4).
To better understand the “potency” of drug-induced CA with time, the average fold change in CA over controls over 24 h was assessed (FIG. 5A), whereby the extent of CA across time points (i.e., 6, 12, 18, and 24 h) was averaged and then divided by the extent of CA in control (i.e., 0 h). All of the drugs at least doubled the peak extent of CA in all cell lines tested (FIG. 5A), although the final extent of CA could be small or large in magnitude depending on the initial centrosomal burden as shown in FIG. 4. […] The extent of CA was less in interphase cells, with maximum values of 31% and 87% for 10 and 25 μM RBN (FIG. 6A). […]

[4] = tested on: human dermal fibroblasts (HDFs); assay: Centrosome amplification (CA) by microscopy, HDFs
Procedure: as §2
To determine whether the CA-inducing activity of declustering drugs is restricted to cancer cells, two non-malignant cell lines, mammary fibrocystic (MCF10A) cells and adult human dermal fibroblasts were treated with these drugs. Neither one of RBN, GF or PJ induced CA or cell death (Table 8) in these cell lines. […] In comparison, 10 and 25 μM RBN increased peak CA over controls in interphase cells (p<0.001 and p=0.001, respectively), with the lower concentration dramatically augmenting peak CA to 56% of cells versus 15% for the higher dose (FIG. 9B). Only 10 but not 25 μM RBN increased the extent of CA in mitotic cells, and this upregulation was only slight (10%, p=0.041).

[5] = tested on: HeLa cells; assay: Centrosome amplification (CA) by microscopy, HeLa cells
Procedure: Consequently, CA was assessed in cultures treated with different concentrations of declustering drugs for 6, 12, 18, or 24 h and untreated controls via microscopy. […] The peak percent CA detected over 24 h is shown in FIG. 6 (only statistically significant (P<0.05) increases over control values are represented in the Figures). Representative confocal micrographs of CA in interphase and mitotic cells, both control and drug treated, are depicted in FIG. 7. […] To better understand the “potency” of drug-induced CA with time, the average fold change in CA over controls over 24 h was assessed (FIG. 5A), whereby the extent of CA across time points (i.e., 6, 12, 18, and 24 h) was averaged and then divided by the extent of CA in control (i.e., 0 h). […] For Nos and BN, there was no major difference in CA levels in interphase versus mitotic cells.

[6] = tested on: mammary fibrocystic (MCF10A) cells; assay: subG1 (hypodiploid) fraction by flow cytometry, MCF10A cells; conditions: for Peak subG1 percent over 48 h: MCF10A
[7] = tested on: PC3 cells; assay: subG1 (hypodiploid) fraction by flow cytometry, PC3 cells
Procedure: as §1

reduced bromonoscapine [RBN]
Peak subG1 percent over 48 h ([1]; 10 μM): 54.1%
maximum subG1 fraction relative to control ([1]; 10 μM): 9 × control
Peak subG1 percent over 48 h ([1]; 25 μM): 75.6%
Peak subG1 percent over 48 h ([2]; 10 μM): 35.9%
Peak subG1 percent over 48 h ([2]; 25 μM): 39.9%
induction of CA [3]: induced CA in all three cell lines
peak CA in interphase cells ([4]; 10 μM): 56%
peak CA in interphase cells ([4]; 25 μM): 15%
extent of CA in mitotic cells ([4]; mitotic, 10 μM): 10%
peak extent of CA in interphase cells ([5]; interphase, 10 μM): 30.7%
peak / final extent of CA in interphase cells ([5]; interphase, 25 μM): 48.1%
cells having CA, mitotic cells ([5]; 10 μM): 78%
fold increase of CA, mitotic cells ([5]; 10 μM): approximately 40 fold
cells having CA, mitotic cells ([5]; 25 μM): 42%
fold increase of CA, mitotic cells ([5]; 25 μM): ~20 fold
change of peak subG1 percent compared to controls (in words) ([6]; MCF10A cells): did increase peak SubG1 in MCF10A cells compared to controls
Peak subG1 percent over 48 h ([6]; 10 μM): 36.4%
Peak subG1 percent over 48 h ([6]; 25 μM): 44.0%
Peak subG1 percent over 48 h ([7]; 10 μM): 80.7%
maximum subG1 fraction relative to control ([7]; 10 μM): 8 × control
Peak subG1 percent over 48 h ([7]; 25 μM): 73.0%
